Measurements: PubChem BioAssay AID248 (DTP/NCI, 2004)
Several values for one entry are separate records, joined by “and”; a condition that tells them apart may be missing. Identical values can stand only once. Inconclusive results and toxic doses are left out.

System: L1210 leukemia ip in BDF1 mice, survival T/C
Assay: NCI In Vivo Anticancer Drug Screen. Data for tumor model L1210 Leukemia (intraperitoneal) in B6D2F1 (BDF1) mice
Details: endpoint: mean survival time, higher = longer survival
Procedure, shortened: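 Value reflects the ratio of survival in compound-treated mice to survival in vehicle-treated controls, with both groups carrying the same transplanted tumor.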

[1] = dose: 50.0 mg/kg/injection, schedule: Q01DX009 (ip), vehicle: saline with Tween-80
[2] = dose: 100.0 mg/kg/injection, schedule: Q01DX009 (ip), vehicle: saline with Tween-80
[3] = dose: 200.0 mg/kg/injection, schedule: Q01DX009 (ip), vehicle: saline with Tween-80
[4] = dose: 100.0 mg/kg/injection, schedule: Q01DX009 (ip), vehicle: Klucel (hydroxypropylcellulose) (HPC)
[5] = dose: 200.0 mg/kg/injection, schedule: Q01DX009 (ip), vehicle: Klucel (hydroxypropylcellulose) (HPC)
[6] = dose: 100.0 mg/kg/injection, schedule: Q04DX003 (ip), vehicle: saline with Tween-80
[7] = dose: 200.0 mg/kg/injection, schedule: Q04DX003 (ip), vehicle: saline with Tween-80
[8] = dose: 400.0 mg/kg/injection, schedule: Q04DX003 (ip), vehicle: saline with Tween-80
[9] = dose: 400.0 mg/kg/injection, schedule: Q01DX009 (ip), vehicle: Klucel (hydroxypropylcellulose) (HPC)
[10] = dose: 25.0 mg/kg/injection, schedule: Q01DX009 (ip), vehicle: saline
[11] = dose: 100.0 mg/kg/injection, schedule: Q04DX003 (ip), vehicle: Klucel (hydroxypropylcellulose) (HPC)
[12] = dose: 200.0 mg/kg/injection, schedule: Q04DX003 (ip), vehicle: Klucel (hydroxypropylcellulose) (HPC)
[13] = dose: 400.0 mg/kg/injection, schedule: Q04DX003 (ip), vehicle: Klucel (hydroxypropylcellulose) (HPC)
[14] = dose: 400.0 mg/kg/injection, schedule: Q01DX009 (ip), vehicle: saline with Tween-80
[15] = dose: 50.0 mg/kg/injection, schedule: Q01DX009 (ip), vehicle: saline
[16] = dose: 100.0 mg/kg/injection, schedule: Q01DX001 (ip), vehicle: saline

SMILES: O=C1c2ccccc2C(=O)N1CNc1ccc2c(c1)OCO2
- T/C [1]: 108 % of control
- T/C [2]: 97 % of control
- T/C [3]: 90 % of control

SMILES: Fc1ccccc1N=C=S
- T/C (dose: 75.0 mg/kg/injection, schedule: Q01DX001 (ip), vehicle: other): 104 % of control
- T/C (dose: 150.0 mg/kg/injection, schedule: Q01DX001 (ip), vehicle: other): 93 % of control

SMILES: CCOC(=O)CC(C(=O)OCC)c1nc2ccccc2[nH]c1=O (stereo not given)
- T/C (dose: 50.0 mg/kg/injection, schedule: Q01DX009 (ip), vehicle: Klucel (hydroxypropylcellulose) (HPC)): 93 % of control and 113 % of control
- T/C [4]: 101 % of control and 90 % of control
- T/C [5]: 93 % of control and 103 % of control

SMILES: Cc1ccc(C(=O)O)cc1S(=O)(=O)Cl
- T/C [1]: 113 % of control
- T/C [2]: 98 % of control
- T/C [6]: 102 % of control
- T/C [3]: 95 % of control
- T/C [7]: 87 % of control
- T/C [8]: 92 % of control

SMILES: CCCSc1ccc2c3c(cccc13)C(=O)OC2=O
- T/C [4]: 101 % of control
- T/C [5]: 98 % of control

SMILES: O=C(Nc1ccc(Cl)cc1Cl)Sc1ccc(Cl)cc1
- T/C [4]: 91 % of control
- T/C [5]: 96 % of control
- T/C [9]: 88 % of control

SMILES: Cn1cnc([N+](=O)[O-])c1[Se]c1nc(N)nc2c1ncn2C1CC(O)C(CO)O1 (stereo not given)
- T/C (dose: 16.5 mg/kg/injection, schedule: Q01DX005 (ip), vehicle: saline): 159 % of control
- T/C (dose: 25.0 mg/kg/injection, schedule: Q01DX005 (ip), vehicle: saline): 202 % of control
- T/C [10]: 150 % of control
- T/C (dose: 37.5 mg/kg/injection, schedule: Q01DX005 (ip), vehicle: saline): 219 % of control
- T/C (dose: 37.5 mg/kg/injection, schedule: Q01DX009 (ip), vehicle: saline): 158 % of control
- T/C (dose: 50.0 mg/kg/injection, schedule: Q01DX005 (ip), vehicle: saline): 98 % of control
- T/C (dose: 62.5 mg/kg/injection, schedule: Q01DX005 (ip), vehicle: saline): 117 % of control
- T/C (dose: 62.5 mg/kg/injection, schedule: Q01DX009 (ip), vehicle: saline): 105 % of control

SMILES: O=S(=O)(c1ccc(N=Nc2ncc[nH]2)cc1)N(CCCl)CCCl
- T/C [1]: 90 % of control
- T/C [2]: 94 % of control
- T/C [3]: 90 % of control

SMILES: COc1ccc(N=NNc2ccc(OC)cc2)cc1
- T/C (dose: 6.25 mg/kg/injection, schedule: Q01DX009 (ip), vehicle: saline with Tween-80): 101 % of control
- T/C (dose: 12.5 mg/kg/injection, schedule: Q01DX009 (ip), vehicle: saline with Tween-80): 102 % of control
- T/C (dose: 12.5 mg/kg/injection, schedule: Q04DX003 (ip), vehicle: saline with Tween-80): 97 % of control
- T/C (dose: 25.0 mg/kg/injection, schedule: Q01DX009 (ip), vehicle: saline with Tween-80): 98 % of control and 90 % of control
- T/C (dose: 25.0 mg/kg/injection, schedule: Q04DX003 (ip), vehicle: saline with Tween-80): 95 % of control
- T/C (dose: 50.0 mg/kg/injection, schedule: Q04DX003 (ip), vehicle: saline with Tween-80): 97 % of control
- T/C [6]: 98 % of control

SMILES: CCCCC(=O)N(CC(C)C)CC(C)C
- T/C (dose: 25.0 mg/kg/injection, schedule: Q04DX002 (ip), vehicle: carboxymethylcellulose (CMC)): 95 % of control
- T/C (dose: 50.0 mg/kg/injection, schedule: Q01DX001 (ip), vehicle: carboxymethylcellulose (CMC)): 95 % of control
- T/C (dose: 50.0 mg/kg/injection, schedule: Q01DX009 (ip), vehicle: carboxymethylcellulose (CMC)): 98 % of control and 120 % of control
- T/C (dose: 50.0 mg/kg/injection, schedule: Q04DX002 (ip), vehicle: carboxymethylcellulose (CMC)): 100 % of control and 102 % of control
- T/C (dose: 50.0 mg/kg/injection, schedule: Q04DX003 (ip), vehicle: carboxymethylcellulose (CMC)): 101 % of control
- T/C (dose: 100.0 mg/kg/injection, schedule: Q01DX001 (ip), vehicle: carboxymethylcellulose (CMC)): 97 % of control
- T/C (dose: 100.0 mg/kg/injection, schedule: Q01DX009 (ip), vehicle: carboxymethylcellulose (CMC)): 95 % of control and 103 % of control
- T/C (dose: 100.0 mg/kg/injection, schedule: Q04DX002 (ip), vehicle: carboxymethylcellulose (CMC)): 98 % of control and 103 % of control and 105 % of control
- T/C (dose: 100.0 mg/kg/injection, schedule: Q04DX003 (ip), vehicle: carboxymethylcellulose (CMC)): 95 % of control
- T/C (dose: 200.0 mg/kg/injection, schedule: Q01DX001 (ip), vehicle: carboxymethylcellulose (CMC)): 88 % of control
- T/C (dose: 200.0 mg/kg/injection, schedule: Q01DX009 (ip), vehicle: carboxymethylcellulose (CMC)): 103 % of control and 92 % of control
- T/C (dose: 200.0 mg/kg/injection, schedule: Q04DX002 (ip), vehicle: carboxymethylcellulose (CMC)): 92 % of control
- T/C (dose: 200.0 mg/kg/injection, schedule: Q04DX003 (ip), vehicle: carboxymethylcellulose (CMC)): 101 % of control
- T/C (dose: 400.0 mg/kg/injection, schedule: Q04DX002 (ip), vehicle: carboxymethylcellulose (CMC)): 102 % of control

SMILES: C(=C\CN(Cc1ccccc1)Cc1ccccc1)/CN(Cc1ccccc1)Cc1ccccc1
- T/C [11]: 90 % of control
- T/C [12]: 87 % of control
- T/C [13]: 87 % of control

SMILES: O=C(Nc1ccccc1C(F)(F)F)c1cccc(C(=O)Nc2ccccc2C(F)(F)F)c1
- T/C [2]: 86 % of control
- T/C [6]: 87 % of control
- T/C [14]: 88 % of control

SMILES: COc1cc2c(cc1OC)C(=O)C(C(=O)c1ccccc1)C2 (stereo not given)
- T/C [11]: 89 % of control
- T/C [12]: 109 % of control
- T/C [13]: 94 % of control

SMILES: CC(=O)NC1C(CO)OC(n2cnc3c(N)nc(Cl)nc32)C1O (stereo not given)
- T/C (dose: 100.0 mg/kg/injection, schedule: Q01DX001 (ip), vehicle: Klucel (hydroxypropylcellulose) (HPC)): 94 % of control
- T/C (dose: 100.0 mg/kg/injection, schedule: Q01DX001 (ip), vehicle: saline with Tween-80): 105 % of control
- T/C (dose: 200.0 mg/kg/injection, schedule: Q01DX001 (ip), vehicle: Klucel (hydroxypropylcellulose) (HPC)): 96 % of control
- T/C (dose: 200.0 mg/kg/injection, schedule: Q01DX001 (ip), vehicle: saline with Tween-80): 107 % of control
- T/C (dose: 400.0 mg/kg/injection, schedule: Q01DX001 (ip), vehicle: Klucel (hydroxypropylcellulose) (HPC)): 91 % of control
- T/C (dose: 400.0 mg/kg/injection, schedule: Q01DX001 (ip), vehicle: saline with Tween-80): 100 % of control

SMILES: Nc1ccn(CC(=O)c2ccco2)c(=O)n1
- T/C [15]: 111 % of control
- T/C (dose: 100.0 mg/kg/injection, schedule: Q01DX009 (ip), vehicle: saline): 111 % of control and 90 % of control
- T/C (dose: 100.0 mg/kg/injection, schedule: Q04DX003 (ip), vehicle: saline): 104 % of control
- T/C (dose: 200.0 mg/kg/injection, schedule: Q01DX009 (ip), vehicle: saline): 105 % of control
- T/C (dose: 200.0 mg/kg/injection, schedule: Q04DX003 (ip), vehicle: saline): 97 % of control

SMILES: O=S(=O)(O)O.[N-]=C(N)/N=C(\[NH-])N.[N-]=C(N)/N=C(\[NH-])N.[N-]=C(N)NC(=[N-])N.[Rh+3]
- T/C (dose: 12.5 mg/kg/injection, schedule: Q04DX003 (ip), vehicle: saline): 91 % of control
- T/C [10]: 118 % of control
- T/C (dose: 25.0 mg/kg/injection, schedule: Q04DX003 (ip), vehicle: saline): 109 % of control
- T/C [15]: 98 % of control
- T/C (dose: 50.0 mg/kg/injection, schedule: Q04DX003 (ip), vehicle: saline): 96 % of control

SMILES: O=CN1CCCCC1
- T/C [16]: 97 % of control
- T/C (dose: 200.0 mg/kg/injection, schedule: Q01DX001 (ip), vehicle: saline): 105 % of control

SMILES: CNC(C#N)Cc1ccccc1 (stereo not given)
- T/C (dose: 2.5 mg/kg/injection, schedule: Q01DX009 (ip), vehicle: saline): 96 % of control
- T/C (dose: 5.0 mg/kg/injection, schedule: Q01DX009 (ip), vehicle: saline): 98 % of control
- T/C (dose: 10.0 mg/kg/injection, schedule: Q01DX009 (ip), vehicle: saline): 104 % of control
- T/C (dose: 20.0 mg/kg/injection, schedule: Q01DX009 (ip), vehicle: saline): 101 % of control

SMILES: CCCCNC(=O)C(=O)c1ccccc1NC(C)=O
- T/C [4]: 86 % of control
- T/C [5]: 87 % of control
- T/C [9]: 97 % of control

SMILES: O=C(Nc1ncc(S(=O)(=O)c2ccc([N+](=O)[O-])cc2)s1)C(F)(F)F
- T/C [2]: 94 % of control
- T/C [3]: 99 % of control

SMILES: Cc1nn2c(=O)[nH]cnc2c1Cl
- T/C [2]: 108 % of control
- T/C [6]: 91 % of control
- T/C [3]: 108 % of control
- T/C [7]: 89 % of control
- T/C [14]: 105 % of control
- T/C [8]: 92 % of control

SMILES: CCC1C2Cc3ccc(O)cc3C1(CC)CCN2C (stereo not given)
- T/C (dose: 50.0 mg/kg/injection, schedule: Q01DX001 (ip), vehicle: saline): 101 % of control
- T/C [16]: 101 % of control
